# From patent US20080207521A1, “PEPTIDE LIGAND TO IMPAIR CANCER CELL MIGRATION” (priority 2005, published 2008)
# Columns and labels:
# Assay type in all cases: cell-based, human
# MDA-MB-468 cells = assay: Migration of MDA-MB-468 cells in modified Boyden chamber; conditions: 18 h; for migration: pure peptide 100 μM
# Description: The HB2 mammary epithelial cell line, a subclone of the MTSV-1.7 cell line, originating from the laboratory of Dr. J. Taylor-Papadimitriou (11) was used. The HB2 cells were cultured in DMEM supplemented with 10% FBS, 5 U/mi penicillin, 0.5 U/ml streptomycin, 2 mM glutamine, 10 μg/ml bovine insulin and 5 μg/ml hydrocortisone. The human mammary carcinoma cell lines MCF-7 and MDA-MB-468 were cultured in DMEM supplemented with 10% FBS, 5 U/ml penicillin, 0.5 U/ml streptomycin and 2 mM glutamine. The pH-experiments were done in MEM supplemented with 10 mM Tris, 0.5% BSA, 5 U/ml penicillin, 0.5 U/ml streptomycin and 2 mM glutamine. The pH 7.4-medium was further supplemented with 4 mM sodium bicarbonate whereas the pH 6.7-medium was not. All cells were incubated at 37° C. in 95% air and 5% CO2.
# (§1) Cell migration analyses were performed in a modified Boyden chamber with a polycarbonate membrane (10 μm thick with a porous diameter of 8.0 μm) separating the two chambers (Transwell®; Costar, Cambridge, Mass.). As indicated in some experiments the membranes were coated with collagen by adding collagen-I (10 μg/ml) diluted in 0.25% acetic acid to the upper chamber for 1 h at 37° C., after which it was washed three times with PBS. Each experiment was initiated by detaching the cells by Versene treatment for 10-20 min at 37° C., washed, and re-suspended as a single cell suspension in serum-free DMEM medium supplemented with 0.5% BSA. Together with the indicated agonist a 0.2 ml cell suspension (containing 25,000 MDA-MB-468 or 50,000 HB2 cells) was then added to the upper chamber of the transwell. The lower chamber was filled with 0.6 ml serum-free but BSA-containing DMEM medium supplemented with 1 ng/ml of the chemoattractant IGF-I. As a control, IGF-I was excluded in some wells in each separate experiment. The cells were allowed to migrate in the Boyden chamber for 18 h at 37° C. in a humidified atmosphere of 95% air and 5% CO2. The experiments were terminated by removing the non-migratory cells with a cotton-tipped applicator from the upper surface of the membranes. The remaining cells on the lower surface that had migrated through the membrane were stained for 20 min with 0.5% crystal violet diluted in 20% methanol/80% water. After washing the membranes the number of stained cells per membrane and well was counted in an inverted microscope. The value from each separate experiment represents the median value of three individual wells.
# Peptide-induced effects on MDA-MB-468 tumour cell migration and their content of F-actin. (A) The cells were allowed to migrate for 18 h in the absence or presence of the indicated peptides (100 μM) The data in panel A are expressed as means±SEM of 8 separate experiments, each performed in triplicate. * p<0.05. (B) The cells were allowed to adhere to collagen I-coated cover glasses for 18h in the absence or presence of peptide 175 (100 μM). The cells were then stained with Alexa488-Phalloidin as described in the methods section. The illustrated micrographs are representative of 5 separate experiments.
# Effects of peptide 175 modifications on its ability to induce MDA-MB-468 tumour cell adhesion and migration. (A) The cells were allowed to adhere for 60 min to collagen-I coated wells in the absence or presence of peptide 175, three stepwise N-terminal deletion variants of peptide 175 or a formylated version of the tested hexapeptide derived from peptide 175. The amounts of adhesive cells were analyzed as described in the methods and the results are given as means±SEM of 6 separate experiments. (B and C) The cells were allowed to migrate for 18 h in the absence or presence of 1 or 10 μM of peptide 175 (B) or the formylated hexapeptide (C). The data are given as means±SEM of 6 separate experiments, each performed in triplicate. * p<0.05, p<0.01.
# Effects of Frz-5 receptor blocking and reduced pH on the abilities of the formylated hexapeptide and Wnt-5a to inhibit tumour cell migration. […]
# DDR1 = assay: Collagen-induced DDR1 phosphorylation in Wnt-5a antisense HB2 cells (immunoprecipitation/Western blot); conditions: crude peptide (approximately 65% pure) 100 μM; 90 min on collagen I
# Description: The phosphorylation status of DDR1 was analyzed as previously described (12), with the following modifications. After serum-depletion for 16 h, the cells were detached with Versene and then allowed to adhere to collagen I for 60 (MDA-MB-468) or 90 min (HB2) at 37° C. The experiments were terminated by lysing both adherent and non-adherent cells with a lysis buffer (50 mM Tris pH 7.4, 1% Triton-X, 5 mM EDTA, 5 mM EGTA, 50 mM NaCl, 10 μg/ml aprotinin, 2.5 mM benzamidine, 1 mM pefabloc, 1 μg/ml leupeptin and 1 mM Na3VO4). For immunoblotting an anti-DDR1 rabbit polyclonal Ab, sc-532 (Santa Cruz Biotech, Santa Cruz, Calif.) was used at a dilution of 1:10,000. The Ab recognizes DDR1b/c, which is essential because collagen only induces phosphorylation of the b or c isoforms of DDR1 in mammary epithelial cells (10).
# Effects of crude peptides on collagen-induced DDR1 phosphorylation in Wnt-5a antisense HB2 cells. Single cells were allowed to adhere to collagen I-coated plates in the presence of the indicated crude peptide (100 μM). (A) Experiments performed in the presence of peptides 167-173. (B) Experiments performed in the presence of peptides 175-180. After 90 min the cells were lysed and DDR1 immunoprecipitated. Subsequently, the immunoprecipitates were subjected to Western blot analysis with an anti-phosphotyrosine Ab and then, after stripping, with an anti-DDR1 Ab to ascertain equal loading. The blots shown are representative of 3 separate experiments The diagrams show densitometric analysis of DDR1 phosphorylation, expressed as per cent of control.
# [1] = system: Wnt-5a antisense HB2 cells; assay: Migration of Wnt-5a antisense HB2 cells in modified Boyden chamber; conditions: 95% pure peptide 100 μM; 18 h
# Description: as §1
# Effects of the selected and pure peptides on the ability of Wnt-5a antisense HB2 cells to adhere and migrate. (A-E) The ability of the cells to adhere to collagen type I-coated wells was analyzed as previously described for FIG. 2 in the absence or presence of different concentrations of the indicated peptide. (F) Effect of the indicated peptides on migration of Wnt-5a antisense HB2 in a transwell migration assay. The cells were allowed to migrate for 18 h in the absence or presence of 100 μM peptide or 0.4 μg/ml of recombinant Wnt5a. The data are given as means±SEM of 6-7 separate experiments, each performed in triplicate. * p<0.05 and ** p<0.01.
sequence,measurement,setting,value
"ADFRKVGDALKEKYD [peptide 169, Wnt-5a aa 242-256]",migration,MDA-MB-468 cells,significantly decreased the migration
same,DDR1 phosphorylation,DDR1,significant DDR1 phosphorylation
same,migration,[1],effectively decreased the migration
"NKTSEGMDGCEL (Human) [peptide 175, Wnt-5a aa 311-322]",motility (migration),MDA-MB-468 cells; 10 μM,significantly impaired the motility
same,migration,MDA-MB-468 cells,significantly decreased the migration
same,DDR1 phosphorylation,DDR1,significant DDR1 phosphorylation
same,migration,[1],effectively decreased the migration
"SQLAGLSQGQKKL [peptide 171, Wnt-5a aa 55-67; negative control]",migration,MDA-MB-468 cells,no statistically significant effect
same,DDR1 phosphorylation,DDR1,no DDR1 phosphorylation
same,migration,[1],no effect on migration
